Results as given in a melting point compilation (Tetko et al.; mined from patent text by program, amines drawn as free bases though some values may be those of a salt).

Compound	melting point [°C]
COCCN1CCN(c2c(F)cc(N3C[C@H](CNC(C)=O)OC3=O)cc2F)CC1	162 to 164
CC(C)(C)N1CC(c2cccc(C(F)(F)F)c2)OCC1=O (centres undefined)	81 to 83
CNC(=O)c1cccc(I)c1	94 to 97
O=C(OI(OC(=O)C(F)(F)F)C(F)(F)C(F)(F)C(F)(F)C(F)(F)C(F)(F)C(F)(F)C(F)(F)F)C(F)(F)F	68 to 70
CCOP(=O)(OCC)c1cc2cc(S(N)(=O)=O)c(Cl)cc2[nH]c1=O	288 to 290
CN(C)c1nc(Cl)nc(-n2ccnc2)n1	88 to 92
CC[C@H]1[C@@H](O)CC(=O)N1c1ccc(C#N)c(Cl)c1F	142 to 144
COC(=O)c1cc(NC(C)=O)ccc1OC	132 to 134
CC(=O)Nc1ccc(C=CC2=NNC(=O)C(C)(C)C2)cc1	255 to 257
O=C(/C=C/c1ccc(Br)cc1)/C=C/c1ccc(Br)cc1	211 to 213
O=C1CCC(C2CCCCC2)CC1C(=S)Nc1ccccc1 (centres undefined)	150
COC(=O)c1ccc(Cl)c(CBr)c1Cl	51 to 54
Clc1nc(N2CCCCC2)c2ncnc(Cl)c2n1	114 to 117
CNc1nc(OC(F)F)cc(OC(F)F)n1	54 to 55
COc1cc(Nc2c(C#N)cnc3cc4cc(OCCN5CCC(O)CC5)c(OC)cc4cc23)c(Cl)cc1Cl	193 to 198
CNC(=O)N(C)c1nc2c(s1)C(=O)CC(C)(C)C2	174 to 175
CCOC(=O)/C=C/c1cc(OCc2cn(-c3ccc(C(F)(F)F)cn3)nc2C(C)C)nn1C	105 to 106
CC(=O)OCc1c(C(=O)C(=O)O)c2cc(-c3cccc(C)c3)ccc2n1Cc1ccc(C)cc1	89 to 90
Nc1nc(Cc2cccs2)no1	132 to 133
COc1ccc2nc(Cl)c(Cl)nc2c1	156 to 159
CSCC(C)(C)NC(=O)c1c(I)cccc1Oc1ncc(C(F)(F)F)cc1Cl	83 to 85

Compound	melting point [°C]
S=C(Cc1ccncc1)N1CCOCC1	162 to 163
CC(C#Cc1cccc(Oc2cccs2)c1)N(O)C(N)=O (centres undefined)	110 to 112
O=C(O)CCP(=O)(O)CCC(=O)O	156 to 159
CS(=O)c1cc(=O)c2ccc(N3CCOCC3)cc2s1 (centres undefined)	198 to 200
Cn1nc(Cl)c2c(=O)n3c(nc21)SCC3	222
CN1CNC(=S)N(c2ccc([N+](=O)[O-])cc2)C1	170 to 172
C=C(Cl)Cc1cc2c(C)cc(=O)oc2c(C)c1O	135 to 163
O=C(Cc1ccc(Br)cc1)c1ccc(Cl)cc1Cl	69 to 70
COC(=O)[C@@]1(C)Cc2c([nH]c3ccc(OC)cc23)[C@@H](c2cccc(O)c2)N1 (racemic)	175 to 177
c1ccc2c(c1)NCc1nnnn1-2	149 to 151
CC/C(=C\C=C\C(=O)O)c1ccc(OC)cc1	136 to 137
NNC(=O)c1cn2c(nc1=O)CCC2	204 to 206
OC(c1ccc(Cl)cc1)(c1ccc(Cl)cc1)C1CO1 (centres undefined)	87 to 88
Nc1cc(OC(=O)Oc2cc(N)c(F)cc2Cl)c(Cl)cc1F	136 to 137
O=C1CCCN1c1c([N+](=O)[O-])cc(C(F)(F)F)c(Cl)c1[N+](=O)[O-]	121 to 122
CCOC(=O)CC(=O)Cc1ccc(OC)c([N+](=O)[O-])c1	87 to 88
CCOc1ccc(C2=NN(C3CCN(C(=O)N4CCOCC4)CC3)C(=O)[C@@H]3CC=CC[C@H]23)cc1OCC	139 to 141
CC[C@H](C)[C@H](NC(=O)OC(C)(C)C)C(=O)N[C@H](C(=O)N[C@@H](Cc1ccc2ccccc2c1)[C@@H](O)[C@@H](O)CC(C)C)[C@@H](C)CC	168 to 169
O=C1CCC(N2C(=O)c3ccccc3C2=O)CC1	140 to 142
CC(=O)C1(O)CCC2C3C=C(C)C4=CC(=O)CCC4(CO)C3CCC21C (centres undefined)	184 to 186
CN1Cc2ccc(COc3cccc4c3CN(C3CCC(=O)NC3=O)C4=O)cc2C1 (centres undefined)	262 to 264

Further lines, results first:

melting point [°C]	Compound
148	CSc1ccc(C=CC(=O)c2cccc(Br)c2)cc1
218 to 220	Cn1c(COc2nn3c(-c4ccccc4F)nncc3c2-c2ccccc2F)nc2ccccc21
229 to 230	COc1c(-c2ccc3cc(NS(C)(=O)=O)ccc3c2)cc(N2CCCC2=O)cc1C(C)(C)C
217 to 219	O=C(Cc1ccc2ccccc2c1)N[C@H]1C[C@H](C(=O)O)Nc2cc(Cl)cc(Cl)c21 (relative stereo)
54 to 55	CCOC(=O)c1cnoc1-c1ccc(OC)cc1
216 to 220	COc1ccc(/C=C/c2ccc3c(Nc4cc(OC)c(Cl)cc4Cl)c(C#N)cnc3c2)cc1
87 to 90	COc1ccc2cc(C(C)C(=O)OCC(=O)OCCO)ccc2c1 (centres undefined)
202 to 203	CCOC(=O)c1sc(NC(=O)c2ccc(C)cc2)nc1C(F)(F)C(F)(F)F
181 to 182	O=C(Nc1cccc(C(F)(F)F)c1)c1coc2cc(Oc3cc(CO)ncn3)ccc12
123 to 124	COc1cccc(-c2ccccc2C(=O)Nc2ccc(Cl)cc2)c1
144 to 146	CN1C(=O)C(C)(CCN2CCN(c3cccc4ccccc34)CC2)c2cc(F)ccc21 (centres undefined)
220 to 222	COc1ccc2ccccc2c1C(=O)/C=C/c1ncn(C(c2ccccc2)(c2ccccc2)c2ccccc2)c1C
110 to 112	CC(Oc1cccc(Oc2ccc(C(F)(F)F)cc2)c1)C(=O)OCCS(=O)Cc1ccccc1 (centres undefined)
167 to 168	COc1c(OCc2ccccc2)ccc(C(=O)O)c1N
140	CN(C)CCCC(C#N)(c1ccc(Cl)cc1)c1ccc(-n2ncc(=O)[nH]c2=O)cc1Cl (centres undefined)
219 to 221	CCCCc1nc2c(N)nc3ccccc3c2n1CCCCC(N)=O
117 to 119	CCc1nc2c(cnn2CC)c(NC2CCOCC2)c1CNC(=O)c1cccc(C(=O)NCc2ccc(OC)c(-c3cccc(CN4CCN(C)CC4)c3)c2)c1
174 to 176	Fc1ccc(F)c(COc2cccnc2NC(=S)Nc2ccc(Cl)cc2)c1F
144 to 145	FC(F)(F)Sc1ccc(C=Cc2nc(COc3ccc(CCCCn4ccnn4)cc3)co2)cc1

melting point [°C]	Compound
158 to 161	COc1ccc([C@@H]2C=C[C@H](C(=O)O)n3c(=O)n(CCCl)c(=O)n32)cc1 (relative stereo)
223	O=C1Cn2ncnc2-c2ccccc2N1
228 to 229	O=c1c2cccnc2n(-c2cccc([N+](=O)[O-])c2)c(=O)n1CC(F)(F)F
120	Cc1cc(-n2ccnc2)c2cccc(OCc3c(Cl)ccc(S(=O)(=O)N4CCC[C@H]4C(=O)NCCCN4CCCC4)c3Cl)c2n1
> 320	Nc1nc2c(sc(=O)n2Cc2ccccc2)c(=O)[nH]1
116 to 118	NC(=O)c1cc(C(O)CN(Cc2ccccc2)Cc2ccccc2)cc2cc[nH]c12 (centres undefined)
112 to 115	CSCc1cc([N+](=O)[O-])ccc1N1C(=O)c2ccc(Cl)cc2C1=O
128	COc1ccc(C(O)CN2CCN(C(c3ccccc3)c3ccccc3)CC2)c(OC)c1OC (centres undefined)
72 to 74	COc1ccc(OC)c2c(Nc3cccc(Br)c3)c(C#N)cnc12
187 to 188	CCCCc1nc2c(N)nc3ccccc3c2n1CCNS(=O)(=O)c1ccc(C)cc1
79 to 82	COc1ccc(C2=C(c3c4n(c5ccccc35)CCC(COC(C)=O)C4)C(=O)OC2=O)cc1 (centres undefined)
228 to 231	COc1ccc2c(c1)c1cc(OC)ccc1c1[nH]c(S(=O)(=O)C(F)(F)F)nc21
148	CNS(=O)(=O)c1cccc(-c2ccc3cccc(N4CCN(C)CC4)c3c2)c1
216 to 219	COc1cc(NS(=O)(=O)c2ccc(Cl)cc2)c(C(=O)Nc2ccc(S(=O)(=O)F)cc2)cc1OC
220 to 222	CCCOc1cc(C(=O)O)cc(N)c1C(=O)c1ccccc1
228 to 230	Nc1ccc2c(c1)Cc1c(-c3ccccc3)n[nH]c1-2
171 to 174	NNc1nncc(-c2ccccc2F)n1
221 to 227	Cn1c(COc2cccc(C(=O)O)c2)nc2ccc(Oc3cccc(OC(F)(F)F)c3)cc21
227 to 231	CCC(C)(C)Nc1c(NCc2c(C)cccc2C)c(=O)c1=O

melting point [°C]	Compound
88 to 89	COC(=O)CCc1oc(-n2ccnc2SC)nc1-c1ccc(Cl)cc1
> 260	COc1cc(Cc2cnc(N)nc2N)cc2c1OC(C)(C)C=C2c1cccs1
225 to 227	COC(=O)c1cc2c(NC3CCC(O)CC3)nc(-c3ccccc3)nc2[nH]1 (centres undefined)
93 to 95	Cc1nc(CO)c(OCc2ccccc2)c(=O)n1C
171 to 172	COn1c(C)nc2c(NCc3c(C)cccc3C)cc(Br)cc21
133 to 140	COC(=O)c1ccccc1NC(=S)c1ccc(OC)nc1
> 270	CCn1c(=O)c2[nH]c(/C=C/c3ccc(-c4ccccc4)cc3)nc2n(CC)c1=O
133 to 134	CCOC(=O)C1=C(COC)NC(COC)=C(C(=O)OCC)C1c1ccccc1C(F)(F)F
146 to 150	Cc1nn2c(-c3ccc(Cl)cc3Cl)cccc2c1[N+](=O)[O-]
218 to 219	COC(=O)c1ccc(-c2nnc(-c3ccc(C(F)(F)F)cc3)s2)cc1
136	C[C@@H]1CCCN1CCCOc1ccc(-c2ccc(S(=O)(=O)Cc3ccccc3)nn2)cc1
111 to 112	CS(=O)(=O)OCC(C(=O)N1CCC(=C2c3ccc(Cl)cc3CCc3cccnc32)CC1)c1ccccc1 (centres undefined)
228 to 229	CCCC(=O)NC1Cc2ccc(-c3ccc(=O)[nH]n3)cc2C1 (centres undefined)
336 to 338	O=c1[nH]c2ncc(-c3ccc(-c4nc[nH]n4)cc3)nc2n1CC1CCCCC1
112 to 114	O=C(O)COc1cccc2c1OCc1sc(SCCC(c3ccccc3)c3ccccc3)nc1-2
91 to 93	CCCc1c(O)ccc2oc(Cc3ccc(OC)cc3)c(C)c12
133	Cn1ncc2c(c1=O)SCCNC2C(=O)Cc1ccccc1 (centres undefined)
83.5 to 86.5	CCc1cccc(CC)c1NC(=NCc1cccc(CCl)c1)Nc1c(CC)cccc1CC
183 to 186	Cn1c2ccccc2c(=O)c2c(Cl)cccc21
